PubChem BioAssay AID2742 (NMMLSC, 2010)
Calls of active or inactive are those of the source.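 The calls were made as follows: active = fitted half-maximal concentration for changing background-corrected GFP signal at or below a set limit; inactive = the rest.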

Assay: TOR pathway reporter MEP2-GFP, concentration series – S. cerevisiae, flow cytometry GFP, MLPCN hits, dose response (AID 2742);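 also: GFP tag reports level of MEP2 protein as a downstream target of TOR signalling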
Conditions: S. cerevisiae MEP2-GFP strain, flow cytometry fluorescence, 3 h; at 33 µM (top of the series)

| SMILES | GFP fluorescence (kMESF), higher = increase |
| --- | --- |
| O=[N+]([O-])c1ccc(N=Nc2c(Cl)cc(O)cc2Cl)cc1 | 4.93 kMESF (inactive) |
| N#Cc1nccnc1S(=O)(=O)c1cccs1 | 2.29 kMESF (inactive) |
| COc1cccc(C(=O)Nc2nnc(-c3ccc(Cl)cc3)o2)c1 | 4.71 kMESF (inactive) |
| CC(C)[C@@]1(c2ccccc2)ON(c2ccccc2C(F)(F)F)C1=O | 2.37 kMESF (inactive) |
| Cc1ccc(-c2nc(C)sc2CC(=O)Nc2nnc(C)s2)cc1 | 1.85 kMESF (inactive) |
| Cc1ccc(/C=C2\C(=O)NC(=S)N(c3ccc(F)cc3)C2=O)s1 | 4.08 kMESF (inactive) |
| O=c1/c(=C/c2cccc3ccccc23)sc2ncnn12 | 4.23 kMESF (inactive) |
| O=C1C=CC(=O)N1c1ccc(O)cc1 | 6.77 kMESF (inactive) |
| O=C1N(c2ccccc2C(F)(F)F)O[C@]1(c1ccccc1)C1CCCCC1 | 3.28 kMESF (inactive) |
| Clc1cnc(N/N=C/c2cccs2)c(Cl)c1 | 2.89 kMESF (inactive) |
| O=C(Cc1ccc(Cl)cc1)NNC(=S)NC(=O)c1cccs1 | 6.72 kMESF (inactive) |
| CC(=O)c1ccc(N2CCN(C(=O)c3ccc(Br)cc3)CC2)c(F)c1 | 2.85 kMESF (inactive) |
| CC(=O)N(C(C)=O)c1ncnc2c1c(-c1ccc(Cl)cc1)nn2C(C)(C)C | 1.85 kMESF (inactive) |
| Cc1ccc(C(=O)NNC(=S)NC(=O)COc2ccccc2)cc1 | 6.29 kMESF (inactive) |
| N/C(Cc1ccc(Cl)cc1)=N\OC(=O)c1ccccc1 | 3.99 kMESF (inactive) |
| COc1cc(N2C(=O)C=CC2=O)c(OC)cc1Cl | 3.78 kMESF (inactive) |
| Nc1ccccc1SC(C[N+](=O)[O-])c1ccccc1 (stereo unspecified) | 3.67 kMESF (inactive) |
| CC(=O)N(C1=C(Cl)C(=O)c2ccccc2C1=O)C1CCCCC1 | -3.41 kMESF (inactive) |
| O=C1c2ccccc2C(=O)N1OS(=O)(=O)c1ccccc1 | 3.26 kMESF (inactive) |
| O=[N+]([O-])c1ccc(S(=O)(=O)c2cccc(C(F)(F)F)c2)nc1 | 4.85 kMESF (inactive) |
| Cc1ccc2nc(Cl)c3nnnn3c2c1 | 4.36 kMESF (inactive) |
| CCc1nc2ccccc2c(=O)n1NC(=O)c1c(O)c2cccc3c2n(c1=O)CCC3 | 1.72 kMESF (inactive) |

| SMILES | GFP fluorescence (kMESF), higher = increase |
| --- | --- |
| COc1ccc(N2C(=O)C(Cl)=C(Oc3cccc(OC)c3)C2=O)cc1 | 4.18 kMESF (inactive) |
| CCN(CC)C(=O)Oc1ccnc2cc(Cl)ccc12 | 11.7 kMESF (inactive) |
| O=c1[nH]c(-c2ccccn2)nc(C(F)(F)F)c1Br | 4.02 kMESF (inactive) |
| CCc1sc(C(=O)Nc2nc(-c3ccccn3)cs2)cc1C | 5.26 kMESF (inactive) |
| O=S(=O)(/N=C(\Sc1ccc(Cl)cc1)c1ccccc1)c1ccccc1 | 4.33 kMESF (inactive) |
| O=C1C=CC(=O)N1N(c1ccccc1)c1ccccc1 | 4.7 kMESF (inactive) |
| COc1ccc(C(=O)NC(=S)NNC(=O)CCc2ccccc2)cc1 | 3.68 kMESF (inactive) |
| CS(=O)(=O)c1nc(-c2cccs2)cc(C(F)(F)F)n1 | 6.41 kMESF (inactive) |
| Cc1ccc(NC(=O)c2nc(S(=O)(=O)Cc3ccccc3)ncc2Cl)cc1 | 3.33 kMESF (inactive) |
| COc1ccc(-c2cc(C(F)(F)F)nc(S(C)(=O)=O)n2)cc1 | 5.2 kMESF (inactive) |
| O=C1C(Cl)=C(Nc2ccccc2O)C(=O)N1CCc1ccccc1 | 3.11 kMESF (inactive) |
| COc1ccc(/C=C2\C(=O)ON=C2c2ccccc2)cc1 | 4.38 kMESF (inactive) |
| Cc1cc(NC(=O)c2cccnc2Cl)ccc1NC(=O)c1cc2ccccc2o1 | 3.21 kMESF (inactive) |
| Cc1ccc(/C=C2\C(=O)NC(=S)N(c3ccccc3F)C2=O)s1 | 4.49 kMESF (inactive) |
| Cc1ccnc(N2C(=O)c3cccc4c([N+](=O)[O-])ccc(c34)C2=O)c1 | 24.6 kMESF (inactive) |
| O=S(=O)(c1ccccc1)c1ccc(C(F)(F)F)cn1 | 2.27 kMESF (inactive) |
| CC1(c2ccccc2)ON(c2ccccc2C(F)(F)F)C1=O (stereo unspecified) | 4.18 kMESF (inactive) |
| C[C@@]12C(=O)OC(=O)[C@]1(C)C1CCC2O1 | 3.51 kMESF (inactive) |
| CC(C)C[C@]1(c2ccccc2)ON(c2ccccc2C(F)(F)F)C1=O | 2.97 kMESF (inactive) |
| O=C(Oc1oc(-c2ccco2)nc1C=Nc1ccc(Cl)cc1)c1ccco1 | 3.6 kMESF (inactive) |
| COCCN1C(=O)/C(=C/c2ccc(N3CCCC3)cc2C)SC1=S | 7.22 kMESF (inactive) |
| CC(C)(C)C1C/C(=C/c2ccccn2)C(=O)/C(=C/c2ccccn2)C1 (stereo unspecified) | 2.67 kMESF (inactive) |

| SMILES | GFP fluorescence (kMESF), higher = increase |
| --- | --- |
| O=C1C=CC(=O)N1c1ccc(Sc2ccc([N+](=O)[O-])cc2)cc1 | 2.59 kMESF (inactive) |
| Cc1ccc(/C=C2/C(=O)ON=C2c2ccccc2)o1 | 3.11 kMESF (inactive) |
| COc1ccc(N=Cc2nc(-c3ccccc3)oc2OC(C)=O)cc1 | 3.51 kMESF (inactive) |
| O=C1c2sc3nc4ccccc4n3c2C(=O)N1c1ccccc1Cl | 3.06 kMESF (inactive) |
| O=C(/C=C/c1ccccc1[N+](=O)[O-])c1ccccc1Br | 62.3 kMESF (inactive) |
| Oc1c(I)cc(I)c2cccnc12 | 4.67 kMESF (inactive) |
| O=C(Nc1nc(-c2ccccn2)cs1)c1cc2ccccc2o1 | 5.47 kMESF (inactive) |
| CC(C)(C)C(=O)NC(=S)NNC(=O)c1ccc(-c2ccccc2)cc1 | 3.92 kMESF (inactive) |
| CCCc1cc(=O)oc2cc(C)cc(OCC(=O)NC3CC3)c12 | 1.67 kMESF (inactive) |
| CCCOc1ccc(C(=O)NNC(=S)NC(=O)CC)cc1 | 4.12 kMESF (inactive) |
| Cc1[nH]c(-c2ccccn2)nc(=S)c1Cl | 4.24 kMESF (inactive) |
| CCCCCCCCC/C(=N\O)c1ccccn1 | 3.61 kMESF (inactive) |
| CCOC(=O)c1c(C)oc2c1c(C(c1ccncc1)N1CCOCC1)c(O)c1ccccc12 (stereo unspecified) | 2.42 kMESF (inactive) |
| O=C1N(c2ccccc2C(F)(F)F)O[C@@]1(c1ccccc1)C1CCCCC1 | 2.87 kMESF (inactive) |
| Cc1ccsc1/C=C1\C(=O)NC(=S)N(C)C1=O | 3.66 kMESF (inactive) |
| CCOC(=O)CS(=O)(=O)c1nc(-c2ccccc2)cc(C(F)(F)F)n1 | 6.41 kMESF (inactive) |
| Cc1nn2c(-c3ccncc3)nnc2c2ccccc12 | 1.97 kMESF (inactive) |
| Cc1cccnc1Nc1nc(-c2ccccn2)cs1 | 2.08 kMESF (inactive) |
| O=C(C#Cc1ccccc1)c1cccc([N+](=O)[O-])c1 | 4.67 kMESF (inactive) |
| CC(=O)[C@]1(O)Cc2c(O)c3c(c(O)c2[C@@H](O[C@H]2C[C@H](N)[C@H](O)[C@H](C)O2)C1)C(=O)c1ccccc1C3=O | 4.71 kMESF (inactive) |
| O=C(Oc1ccnc2cc(Cl)ccc12)N1CCOCC1 | 2.97 kMESF (inactive) |
| Cc1ccc(-c2nc(N)c3c(-c4ccc(C)cc4)nn(C(C)(C)C)c3n2)cc1 | 1.65 kMESF (inactive) |

| SMILES | GFP fluorescence (kMESF), higher = increase |
| --- | --- |
| O=C(COc1ccc(F)cc1Cl)Nc1nc(-c2ccccn2)cs1 | 4.88 kMESF (inactive) |
| Cc1ccc(S(=O)(=O)c2ccc([N+](=O)[O-])cn2)cc1 | 5.31 kMESF (inactive) |
| CC1=NNC(=O)/C1=C\c1cn(-c2ccccc2)nc1-c1ccccc1 | 3.11 kMESF (inactive) |
| CCc1cccc2sc(N3CCN(C(=O)c4ccc([N+](=O)[O-])o4)CC3)nc12 | 0.16 kMESF (inactive) |
| Cc1cccc(N=C2NC(=O)/C(=C/C=C/c3ccco3)S2)c1C | 6.73 kMESF (inactive) |
| O=C(c1ccccc1)c1ccccc1N1C(=O)C=CC1=O | 4.22 kMESF (inactive) |
| Cc1nn(C)c(C)c1N1C(=O)c2cccc3c(Br)ccc(c23)C1=O | 3.61 kMESF (inactive) |
| CCCCCn1c(=O)c(C(=O)Nc2nc3ccccc3[nH]2)c(O)c2ccccc21 | 1.97 kMESF (inactive) |
| COC(=O)/C(=C/c1c[nH]c2ccccc12)[N+](=O)[O-] | 4.87 kMESF (inactive) |
| O=c1cc(-c2ccccc2)cc(-c2ccccc2)n1O | 4.49 kMESF (inactive) |
| Cc1ccc(-c2nn(C(C)(C)C)c3ncnc(N)c23)cc1 | 6.01 kMESF (inactive) |
| Oc1ccc(COCc2ccccc2)c2cccnc12 | 6.91 kMESF (inactive) |
| O=c1c2cnn(-c3ccccc3)c2ncn1Cc1ccco1 | 1.97 kMESF (inactive) |
| Oc1ccc2ccccc2c1/C=N/Nc1nnc(-c2ncc[nH]2)c2ccccc12 | -21.2 kMESF (inactive) |
| Cc1ccccc1N=Nc1ccc(O)c2ncccc12 | 3.51 kMESF (inactive) |
| Cc1cccc(NC(c2ccc(C)s2)c2ccc3ccc(C)nc3c2O)n1 (stereo unspecified) | 8.62 kMESF (inactive) |
| N#C/C(=C\c1cc(Br)ccc1F)C(=O)NC1CC1 | 6.77 kMESF (inactive) |
| CCOC(=O)Cn1cc(/C=C/[N+](=O)[O-])c2ccccc21 | 4.22 kMESF (inactive) |
| Cc1ccc(/C=C2\SC(=S)N(CC3CCCO3)C2=O)o1 (stereo unspecified) | 4.83 kMESF (inactive) |
| CC(=O)Oc1cccc(N2C(=O)c3cccc4c([N+](=O)[O-])ccc(c34)C2=O)c1 | 7.84 kMESF (inactive) |
